Measurements: patent US12065671B2, “Method for reproducible differentiation of clinical-grade retinal pigment epithelium cells” (The United States of America, as represented by the …, priority 2015, dated 2024)
Entries after “also recorded” stand apart in the source; their conditions may differ.

Key:
Assay type in all cases: cell-based, human
[1] = system: iPSC-RPE cells; test: Immunostaining of iPSC-RPE monolayer (beta catenin, pERM, ZO1, RPE65, p27); details: for p27 staining: nucleus, higher expression suggests cell cycle exit; for Beta catenin staining: treated vs untreated iPSC-RPE cells (untreated: cytoplasm); for RPE65 staining: treated vs untreated iPSC-RPE cells (untreated: low); for RPE maturation: treatment of RPE cells in RPE-MM
Procedure: (§1) For analysis of the mature RPE cells produced from treatment with PGE2, immunostaining of the RPE monolayer was performed to confirm the hexagonal architecture (FIGS. 4A-4C) of tight junctions by ZO1 staining as well as transmission electron microscopy of the iPSC-RPE cells (FIG. 4D). […] In addition, treatment with IWP2+endo-IWR1 or IWP2 results also results in decreased beta catenin (FIG. 5A) and increased RPE65 (FIG. 5C).

[2] = system: RPE population; test: Inclusion of MEK inhibitor in RDM and RPE-MM during RPE differentiation; details: 1 μM in RDM and in RPE-MM (approximately Days 42 through 50)
Procedure: With regard to the methods described in Examples 2 and 3, the inclusion of PD0325901 at a concentration of 1 μM in media for certain windows of time beginning on Day 2 post iPSC plating through the end of the differentiation process, including post-MACS culture, may improve both purity of the RPE population (meaning a decrease in contaminating cells) as well as maturity of the resulting RPE population.

[3] = system: iPSC-RPE cells; test: Transmission electron microscopy of iPSC-RPE cells; details: treated vs untreated iPSC-RPE cells
Procedure: as §1

[4] = system: iPSC-derived RPE cells; test: Barrier function: transepithelial electrical potential (TEP) and resistance (TER) of RPE monolayer
Procedure: To measure the barrier function of the RPE cells generated by the present methods, transepithelial electrical potential (TEP) was measured the ion gradient across the monolayer generated by energy-driven ion pumps that regulate passage across the cells, and transepithelial electrical resistance (TER) measures resistance of substances through the paracellular space mainly through the fine structure of the tight junction structure (FIG. 7A).
Functionality of the mature RPE cells treated with IWP2 or endo-IWR1 was also characterized. […] To determine the maturity and functionality of the 50 μM versus 100 μM PGE2 treated cultures, the barrier function in terms of transepithelial electrical resistance (TER) was measured (FIG. 7F) to compare the resistance of substances through the paracellular space as explained in Example 9. To determine the percentage of pure RPE cells obtained after treatment of the iPSC-derived RPE cultures with 50 μM or 100 μM in the RPE-MM+PGE2 medium, flow cytometry purity assay was performed for RPE-specific markers (FIG. 7G) as described in Example 6.

[5] = system: iPSC-derived RPE cells; test: Flow cytometry purity assay for RPE-specific markers
Procedure: The flow cytometry purity assay was performed to determine the percentage of RPE cells obtained by a sorting method of the present disclosure. An aliquot of the cell suspension collected from the MACS assay (2×10^6 cells in a 5 mL FACS tube per sample) was centrifuged at 400×g for 3 min. The cell pellet was resuspended in 1 mL of a stain (e.g., Live-Dead Red stain) and incubated in the dark at room temperature for 15 min. After incubation, 2 mL of wash buffer was added and the cells were centrifuged at 400×g for 3 min to remove any unbound stain. The cell pellet was resuspended in fixation buffer and incubated in the dark at room temperature for 15 min. After incubation, 2 mL of wash buffer were added and the cells were centrifuged at 400×g for 3 min and the supernatant was decanted. The cell pellet was resuspended in 2 mL of wash buffer to make a 1×10^6 cells/mL suspension and 200 μL of the cell suspension was transferred to a FACS tube. To each tube, 2 mL of perm buffer was added and cells were centrifuged at 400×g for 3 min. Primary antibodies for the RPE-specific markers were diluted in perm buffer and 100 μL diluted antibody solution was added to each tube. After incubation overnight at 4° C. in the dark, the cells were washed in 2 mL Perm Buffer two times. Secondary antibody solution was added to each of the tubes and cells were incubated at room temperature in the dark for 1-2 hours. After incubation, the cells were washed twice with Perm Buffer, centrifuged (400×g for 3 min) and resuspended in 100 μL wash buffer for flow cytometry analysis. […]
Functionality of the mature RPE cells treated with IWP2 or endo-IWR1 was also characterized. […] To determine the maturity and functionality of the 50 μM versus 100 μM PGE2 treated cultures, the barrier function in terms of transepithelial electrical resistance (TER) was measured (FIG. 7F) to compare the resistance of substances through the paracellular space as explained in Example 9. […]

[6] = day 75, 100 μM vs 50 μM PGE2, day 54 to day 75

Row | SMILES | p27 staining [1] | Beta catenin staining [1] | RPE65 staining [1] | RPE maturation [1] | Purity and maturity of the RPE population [2] | ZO1 staining ([1]; both untreated and treated cells) | pERM (Ezrin) staining ([1]; treated vs untreated iPSC-RPE cells (untreated: low in cytoplasm)) | Apical processes in transmission electron micrographs [3] | Functional response (TER) ([4]; 100 μM vs 50 μM PGE2 in RPE-MM+PGE2 medium, Day 54 to Day 75) | TEP and TER measurements (functionality) ([4]; treated vs untreated RPE cells) | Expression of Best 1 marker (late maturity RPE marker) [5, 6] | Expression of Pmel17, Tryp1 and Cralbp (RPE-specific markers) [5, 6] | Purity and maturity of the RPE population ([5]; higher concentration (100 μM vs 50 μM) in RPE-MM+PGE2 medium, TER and flow cytometry)
1 | Cc1ccc2nc(NC(=O)CSc3nc4c(c(=O)n3-c3ccccc3)SCC4)sc2c1 [IWP2, N-(6-Methyl-2-benzothiazolyl)-2-[(3,4,6,7-tetrahydro-4-oxo-3-phenylthieno[3,2-d]pyrimidin-2-yl)thio]-acetamide] | higher p27 expression in the nucleus | decreased; also recorded: on cell membrane | increased; also recorded: high in the cytoplasm | produces mature RPE cells | – | – | – | – | – | – | – | – | –
2 | [Cl-].[Li+] [LiCl] | weak p27 expression in the nucleus | in the nucleus | no staining | – | – | – | – | – | – | – | – | – | –
3 | O=C(NOC[C@H](O)CO)c1ccc(F)c(F)c1Nc1ccc(I)cc1F [PD 0325901, N-[(2R)-2,3-Dihydroxypropoxy]-3,4-difluoro-2-[(2-fluoro-4-iodophenyl)amino]-benzamide] | – | – | – | – | improve both purity and maturity | – | – | – | – | – | – | – | –
4 | CCCCC[C@H](O)/C=C/[C@H]1[C@H](O)CC(=O)[C@@H]1C/C=C\CCCC(=O)O [PGE2, prostaglandin E2] | – | decreased; also recorded: at the membrane | increased; also recorded: high in the cytoplasm | produces mature RPE cells | – | at the tight junctions in the plasma membrane | high in the cytoplasm | more extensive apical processes | progressive increase | increased functionality | much higher | comparable expression | promotes both the purity and maturity
